# Test results: US6653313B2, “1,4-dihydropyridine compounds as bradykinin antagonists” (Warner-Lambert Company LLC, priority 2000, dated 2003)
# Where a name gives a salt, the structure may show the parent alone.
row,Structure (SMILES),melting point
1,COC(=O)C1=C(CCc2ccccc2NS(=O)(=O)C(F)(F)F)NC(CC(=O)N2CCN(C3CC4CCC(C3)N4C)CC2)=C(C(=O)OC)C1c1c(Cl)cccc1Cl (stereo not shown) (as salt: HCl),218 to 220 °C (dec.)
2,CNC(=O)CCC(=O)NCc1ccccc1CCC1=C(C(=O)OC)C(c2c(Cl)cccc2Cl)C(C(=O)OC)=C(CC(=O)N2CCN(C3CC4CCC(C3)N4C)CC2)N1 (stereo not shown) (as salt: citrate),158 to 160 °C (dec.)
3,COC(=O)C1=C(CCc2ccccc2COCCN2CCCC2)NC(CC(=O)N2CCN(C3CC4CCC(C3)N4C)CC2)=C(C(=O)OC)C1c1c(Cl)cccc1Cl.O=C(O)CCC(=O)O (stereo not shown),168 °C (dec.)
4,COC(=O)C1=C(CCc2ccccc2NS(C)(=O)=O)NC(CC(=O)N2CCN(C3CC4CCC(C3)N4C)CC2)=C(C(=O)OC)C1c1c(Cl)cccc1Cl (stereo not shown) (as salt: HCl),143 °C
5,COC(=O)C1=C(CCc2ccccc2C(=O)N2CCNCC2)NC(CC(=O)N2CCN(C3CC4CCC(C3)N4C)CC2)=C(C(=O)OC)C1c1c(Cl)cccc1Cl (stereo not shown) (as salt: HCl),198 to 200 °C (dec.)

# Continued, values first:
row,melting point,Structure (SMILES)
1,151 °C,CCNCCOCc1ccccc1CCC1=C(C(=O)OC)C(c2c(Cl)cccc2Cl)C(C(=O)OC)=C(CC(=O)N2CCN(C34CCCC(CC3)N4C)CC2)N1 (stereo not shown) (as salt: citrate)
2,77 to 79 °C (dec.),CCN(CC)Cc1ccccc1CCC1=C(C(=O)OC)C(c2c(Cl)cccc2Cl)C(C(=O)OC)=C(CC(=O)N2CCN(C3CC4CCC(C3)N4C)CC2)N1 (stereo not shown) (as salt: HCl)
